The source of these data is patent US20190070113A1, “Treating Ephrin Receptor A2 (Epha2) Positive Cancer with Targeted Docetaxel-Generating Nano-Liposome Compositions” (Merrimack Pharmaceuticals, Inc., priority 2016, published 2019).

Data set [1] deals with #12424 PDX tumor model. Briefly: Efficacy in pancreatic patient derived xenograft #12424 (PDX 12424-8P). The note with it: for growth inhibition versus saline control: both dose levels (Gemcitabine 35 and 100 mg/kg; Oxaliplatin 5 and 10 mg/kg).
Experimental: (§1) Experiments were performed according to approved guidelines. CB.17 SCID mice were obtained from Roswell Park Cancer Institute, initially at 6-8 weeks of age. Per treatment group, 8 animals were treated, unless otherwise indicated. Tumor pieces were derived from donor mice and engrafted subcutaneously. Depending on the variability in tumor growth, animals were either randomized to the different arms at one specific timepoint or a rolling randomization was performed in which a subgroup of animals were randomized through a period of time to ensure less variability in starting sizes. Animals were randomized and dosing initiated when tumors reached an average volume of 200-250 mm^3 (range 100-400 mm^3), unless otherwise indicated.
(§2) For efficacy experiments, 46scFv-ILs-DTXp3 were generated as described in composition description.
Intravenous administration of the indicated doses of each agent was initiated when tumors reached an average volume of 200-250 mm^3 and continued for a total of four weekly doses. Tumor volumes were measured once to twice weekly during the dosing cycle and until tumors regrow or reaching maximum monitoring period of 120-160 days or animals were in poor general health and needed to be sacrificed. The tumor progression was monitored by palpation and caliper measurements of the tumors along the largest (length) and smallest (width) axis twice a week.
(§3) Tumor volume (TV)=[(length)×(width)^2]/2
(§4) Single tumor volume curves for each animal were plotted and two metrics that describe antitumor effects were calculated as follows:
(§5) 1) Max Response=[(minimum TV−TV at day 0)/TV at day 0]×100
(§6) 2) Time to regrowth=Time for the tumor to reach four times its initial size
(§7) All statistical analysis between treatment groups was performed using JMP v11.0 software. For treatment group comparison, two-way ANOVA analysis was performed in conjunction with post hoc Tukey HSD statistical analysis.
Model #12424 was maintained by passaging tumor fragments in immunodeficient mice. This PDX model was at passage 8 for study #12424-8P.
A short description of data set [2]: Short-term tolerance test of 46scFv-ILs-DTXp3 with Gemcitabine or Carboplatin. The format is in vivo, CD-1 female mice. The note with it: for histopathology: individual hepatocyte necrosis: carboplatin combo and mono, gemcitabine combo with 46scFv-ILs-DTXp3 100 mpk; for histopathology: extramedullary hematopoiesis in the spleen: carboplatin mono and combo, Gemcitabine combo with 46scFv-ILs-DTXp3 100 mpk. The method, then:
Gemcitabine and Carboplatin are chemotherapeutic agents likely to be combined with 46scFv-ILs-DTXp3 in the clinic. Gemcitabine alone is well tolerated in mice; most protocols list an MTD for i.p. dosing around 240 mpk q3d. […] The stock concentration of 46scFv-ILs-DTXp3 was 11.09 mg/ml. Carboplatin was purchased from Hospira Inc and used at a stock concentration of 10 mg/ml. Gemcitibine was purchased from Sun Pharam and used at a stock concentration of 38 mg/ml.
CD-1 female mice (7-8 week old) were obtained from Charles River. During the treatment phase mice body weight was monitored daily. In order to assess the effect of drug scheduling on tolerability, animals were treated with a single dose of 46scFv-ILs-DTXp3 followed by a dose of either carboplatin or gemcitabine at various dose levels and starting at different timepoints post 46scFv-ILs-DTXp3 treatment (Table 3). Additionally, a single treatment group treated with carboplatin or gemcitabine was added.
At study end (10 days after last drug dose, i.e. day 10 for 8 h, day 11 for 24 h, and day 13 for 72 h combinations), mice were euthanized with carbon dioxide. Blood was collected by cardiac puncture. Catalyst analysis used an EQUINE-15 clip with an additional individual ALT assay added (Idexx, Westbrook, Mass.). Tissues collected included liver, kidney, spleen, heart, skeletal muscle (with skin attached). Tissues were fixed in 10% neutral buffered formalin ˜24 h, then stored in 70% ethanol. Tissues from mice in the highest-dose groups (all time points) as well as untreated and single-agent controls were shipped to Mass Histology Inc (Worcester, Mass.) for processing, and H&E staining of sectioned tissues. Received slides were scanned at 20X on the aperio bright field scanner.

The test system of data set [3] is human ovarian patient derived model OVx-132. The experiment in a line: Combination with carboplatin in ovarian patient derived model OVx-132. The format is in vivo, Immunodeficient mice. Particulars: for growth arrest and tumor regression: docetaxel 5 mg/kg, 46scFv-ILs-DTXp3 25 mg/kg, carboplatin 60 mg/kg, combinations dosed 3 days apart, carboplatin first; for Time-to-tumor regrowth (TTR; time for tumor to double its volume): monitored 160 days. The method, then:
Immunodeficient mice were implanted with human ovarian patient derived model OVx-132. Animals randomized into the following experimental groups: Saline, docetaxel at 5 mg/kg, 46scFv-ILs-DTXp3 at 25 mg/kg, carboplatin 60 mg/kg, carboplatin/docetaxel, and carboplatin/46scFv-ILs-DTXp3. For the combinations groups carboplatin/docetaxel and carboplatin/46scFv-ILs-DTXp3 doses used for the monotherapy arms were combined and dosed 3 days a part with carboplatin being dosed first followed by the docetaxel or 46scFv-ILs-DTXp3.
The animals received four tail vein injections, at the intervals of 7 days. Tumor size was monitored once to twice weekly.
Tumor volume(TV)=[(length)×(width)^2]/2
Maximum response was calculated using the following formula where TV is tumor volume:
Max tumor regression=[(TVmin−TVday0)/TVday0]×100
Maximum tumor regression was classified as complete tumor regression (100% regression with no palpable tumor), partial tumor regression (max tumor regression more than 30%) or no tumor regression.
Animals were monitored until tumor regrowth or end of monitoring period (>120 days). Time to regrowth was defined as time for tumor to double its volume. Animals sacrificed prior to tumor volume doubling are censored.

Data set [4] in a line: Hydrolysis in buffer. It counts as physicochemical. The note with it: 37° C. The method, then: A volume of a 10 mg/mL solution of drug in DMSO as needed to provide the desired concentration (typically 16 μL to yield a 80 μg/mL solution) (see Table 1) is placed in a glass test tube or 4 mL vial. Additional DMSO may also be added (e.g. 64 μL when using 16 μL of drug solution) to yield a final total DMSO concentration of 4%. The DMSO solutions are mixed by brief vortexing, and then 2 mL (20 mM) HEPES buffer for pH 7.5 and 2 mL of (20 mM) phosphate buffer for pH 2.5 is added and the mixture is vortexed again. The initial pH may be adjusted by addition of HCl or NaOH.
Then 100 μL aliquots of the buffer solution of drug are transferred into HPLC vials and incubated in a 37° C. water bath. The remaining solution is also incubated at 37° C. in 4 mL vials for monitoring of pH.
At each time point 900 μL of 0.1% trifluoroacetic acid (TFA) in acetonitrile (ACN) is added to the HPLC vial and the contents are vortexed. The vials are then placed in an autosampler rack at 4° C. for HPLC analysis.
Time zero data points are typically obtained from a solution of 4 μL DMSO stock in 5 mL of 0.1% TFA/ACN (8 μg/mL).
HPLC analysis is performed on a SYNERGI 4 micron Polar RP-80A, 250×4.6 mm column, using a flow rate of 1 mL./min, a 50 μL injection volume, column temperature of 25° C. and with UV detection at 227 nm. Most compounds are analyzed using a 13 min gradient (Method A) from 30 to 66% acetonitrile in aqueous 0.1% TFA, followed by a 1 min gradient back to 30% and a hold at 30% for 6 minutes. If the retention time is too long for this method, a 20 min gradient (Method B) of 30 to 90% acetonitrile, followed by a 1 min return to 30% and held for 9 min at 30% is employed.
The extent of hydrolysis is reported in Table 4 below as the % PTX or DTX formation based on relative peak areas.

For data set [5] the following is noted: mice; i.p. dosing q3d; most protocols list; cited from earlier work.
For data set [6], the system named is Pancreatic PDX model #15010. Briefly: Efficacy in pancreatic patient derived xenograft #15010 (PDX 15010-P5). Background: In xenograft studies the graft and the host belong to different species.
Experimental: as §1, §2
(§8) Intravenous administration of the indicated doses of each agent was initiated when tumors reached an average volume of 200-250 mm^3 and continued for a total of four weekly doses. Tumor volumes were measured once to twice weekly during the dosing cycle and until tumors regrow or reaching maximum monitoring period of 120-160 days or animals were in poor general health and needed to be sacrificed. The tumor progression was monitored by palpation and caliper measurements of the tumors along the largest (length) and smallest (width) axis twice a week. The tumor sizes were determined twice weekly from the caliper measurements using the formula (Geran, R. I., et al., 1972 Cancer Chemother. Rep. 3:1-88):
as §3, §4, §5, §6, §7
Data set [7] relates to PDX 14244-10P.
Experimental: CB.17 SCID mice were obtained from Roswell Park Cancer Institute, initially at 6-8 weeks of age. Per treatment group, 8 animals were treated, unless otherwise indicated. Tumor pieces were derived from donor mice and engrafted subcutaneously. Depending on the variability in tumor growth, animals were either randomized to the different arms at one specific timepoint or a rolling randomization was performed in which a subgroup of animals were randomized through a period of time to ensure less variability in starting sizes. Animals were randomized and dosing initiated when tumors reached an average volume of 200-250 mm^3 (range 100-400 mm^3), unless otherwise indicated.
Intravenous administration of the indicated doses of each agent was initiated when tumors reached an average volume of 200-250 mm^3 and continued for a total of four weekly doses. Tumor volumes were measured once to twice weekly during the dosing cycle and until tumors regrow or reaching maximum monitoring period of 120-160 days or animals were in poor general health and needed to be sacrificed. The tumor progression was monitored by palpation and caliper measurements of the tumors along the largest (length) and smallest (width) axis twice a week. The tumor sizes were determined twice weekly from the caliper measurements using the formula (Geran, R. I., et al., 1972 Cancer Chemother. Rep. 3:1-88): […]
For data set [8], the system named is PDX model #14244. Briefly: Efficacy in patient derived xenograft #14244 (PDX 14244-9P). Particulars: for maximal tumor response to drug compared to control group: both dose levels.
Experimental: The pancreatic xenograft model series are true xenotransplant models that were directly engrafted from patient tumor resections into SCID mice for propagation and maintained by transplantation of tumor fragments (Hylander et al., 2005, 2013). […] CB.17 SCID mice were obtained from Roswell Park Cancer Institute, initially at 6-8 weeks of age. Per treatment group, 8 animals were treated, unless otherwise indicated. Tumor pieces were derived from donor mice and engrafted subcutaneously. Depending on the variability in tumor growth, animals were either randomized to the different arms at one specific timepoint or a rolling randomization was performed in which a subgroup of animals were randomized through a period of time to ensure less variability in starting sizes. Animals were randomized and dosing initiated when tumors reached an average volume of 200-250 mm^3 (range 100-400 mm^3), unless otherwise indicated.
For efficacy experiments, 46scFv-ILs-DTXp3 were generated as described in composition description. […] MM-398 was generated in house using the final commercial process.
as §8, §3, §4, §5, §6, §7
Model #14244 was maintained by passaging tumor fragments in immunodeficient mice. This PDX model was at passage 9 for study #14244-9P.

Each structure is given as a SMILES string.

`O=c1[nH]cc(F)c(=O)[nH]1` [5-Fluorouracil]: in data set [1] (50 mg/kg, four weekly IV doses), the “inhibition of tumor growth compared to saline control (time to regrowth)” value was 12 days.
As for `N.N.O=C([O-])C1(C(=O)[O-])CCC1.[Pt+2]` [Carboplatin], the “weight loss in individual mice at day 6” value in data set [2] (Carboplatin 84 mg/kg dosed 8 h or 24 h after 46scFv-ILs-DTXp3 100 mpk, regained weight by day 10-11) was “at most 10%”. Further, in data set [2] (highest-dose groups), the “histopathology: individual hepatocyte necrosis” value was “increased incidence of individual hepatocyte necrosis (minimal to mild)” and the “histopathology: extramedullary hematopoiesis in the spleen” value is listed as “Increased extramedullary hematopoieisis (EMH) in the spleen”. For the same compound, the “histopathology: mitotic rate in the liver” value in data set [2] (carboplatin treated groups, highest-dose groups) was “increase in mitotic rate in the liver”. Also, in data set [3], the “growth arrest and tumor regression” value was “minimal growth arrest and no tumor regression”; the “Time-to-tumor regrowth (TTR; time for tumor to double its volume)” value is on record as “minor delay on time to regrowth”.
Regarding `CCN(CC)CCCC(=O)O[C@@H](C(=O)O[C@H]1C[C@@]2(O)[C@@H](OC(=O)c3ccccc3)[C@@H]3[C@]4(OC(C)=O)CO[C@@H]4C[C@H](O)[C@@]3(C)C(=O)[C@H](O)C(=C1C)C2(C)C)[C@@H](NC(=O)OC(C)(C)C)c1ccccc1.Cl` [Compound 3, 2′-O-(4-Diethylamino Butanoyl) DTX Hydrochloride], the “Percentage of Hydrolysis (% DTX formation)” value is given as 0.00% in data set [4] (pH 2.5, 0 h); 0.00% in data set [4] (pH 2.5, 5 h); 0.00% in data set [4] (pH 2.5, 24 h); 0.00% in data set [4] (pH 2.5, 48 h); 0% in data set [4] (pH 2.5, 96 h); 0.00% in data set [4] (pH 7.5, 0 h). Moreover, the “Percentage of Hydrolysis (% DTX formation)” value worked out at 45.76% in data set [4] (pH 7.5, 5 h); 100.00% in data set [4] (pH 7.5, 24 h); 100.00% in data set [4] (pH 7.5, 48 h); 100% in data set [4] (pH 7.5, 96 h).
Consider `CC(=O)O[C@@]12CO[C@@H]1C[C@H](O)[C@@]1(C)C(=O)[C@H](O)C3=C(C)[C@@H](OC(=O)[C@H](OC(=O)CCCN(C)C)[C@@H](NC(=O)OC(C)(C)C)c4ccccc4)C[C@@](O)([C@@H](OC(=O)c4ccccc4)[C@H]21)C3(C)C.Cl` [Compound 4], for which the “Percentage of Hydrolysis (% DTX formation)” value in data set [4] (pH 2.5, 0 h) came to 0.00%; in data set [4] (pH 2.5, 5 h) it was 0.00%; in data set [4] (pH 2.5, 24 h) it was 0.00%; in data set [4] (pH 2.5, 48 h), 0.00%; in data set [4] (pH 2.5, 96 h), 0%; in data set [4] (pH 7.5, 0 h), 0.00%. Also, the “Percentage of Hydrolysis (% DTX formation)” value was 76.07% in data set [4] (pH 7.5, 5 h); 100.00% in data set [4] (pH 7.5, 24 h); 100.00% in data set [4] (pH 7.5, 48 h); 100% in data set [4] (pH 7.5, 96 h).
As for `Nc1ccn([C@@H]2O[C@H](CO)[C@@H](O)C2(F)F)c(=O)n1` [Gemcitabine], the “growth (body weight)” value in data set [2] (Gemcitabine 292 mg/kg, 72 h post-46scFv-ILs-DTXp3) is recorded as “least growth of the 292 mg/kg groups”. Also, the “ALT and AST” value in data set [2] (Gemcitabine 292 mg/kg, 72 h post-46scFv-ILs-DTXp3, study end) was “elevated ALT and AST at study end”. Also, in data set [2] (highest-dose groups), the “histopathology: individual hepatocyte necrosis” value is on record as “increased incidence of individual hepatocyte necrosis (minimal to mild)” and the “histopathology: extramedullary hematopoiesis in the spleen” value is “Increased extramedullary hematopoieisis (EMH) in the spleen”. Moreover, the “toxicity (weight loss or catalyst enzyme profiling different than control mice)” value in data set [2] (mice, following an i.v. dose for 10 days, doses as high as 291.6 mg/kg) was “did not find toxicity”. The MTD entry in data set [5] is reported as “around 240 mpk”. In data set [6] (35 mg/kg), the “maximal response: decrease in tumor volume” value stood at 27% and the “tumor growth inhibition relative to control (time to regrowth)” value is given as 27 days. Moreover, in data set [6] (100 mg/kg), the “maximal response: decrease in tumor volume” value is 37% and the “tumor growth inhibition relative to control (time to regrowth)” value turned out to be 37 days. The “time to regrowth: growth inhibition” value in data set [7] (100 mg/kg) stood at 21.9 days. Also, the “maximal response to therapy (tumor response)” value in data set [7] (Gemcitabine monotherapy (100 mg/kg)) amounted to 42.11%. Besides, the “growth inhibition versus saline control” value in data set [1] was “statistically insignificant from saline control”. Further, the “delay of regrowth compared to saline (time to regrowth)” value in data set [8] (35 mg/kg) is “two”. The “delay of regrowth compared to saline (time to regrowth)” value in data set [8] (100 mg/kg) is 18 days. Also, in data set [8], the “maximal tumor response to drug compared to control group” value is recorded as “did not demonstrate a significant tumor response to drug”.
For `O=C1[O][Pt]2([NH][C@@H]3CCCC[C@H]3[NH]2)[O]C1=O` [Oxaliplatin], the “tumor growth inhibition relative to control (time to regrowth)” value in data set [6] (10 mg/kg) was found to be 30 days. Also, the “maximal tumor response to drug versus saline control” value in data set [6] (both treatment doses) is recorded as “did not show a statistically significant difference from saline control”. In addition, the “growth inhibition versus saline control” value in data set [1] is on record as “statistically insignificant from saline control”. In addition, the results for the “delay of regrowth over control group (time to regrowth)” value in data set [8] (5 mg/kg) and in data set [8] (10 mg/kg) were 2 days and 1 days, respectively. Moreover, in data set [8], the “maximal tumor response to drug compared to control group” value is given as “did not demonstrate a significant tumor response to drug”.
Turning to `CC(=O)O[C@@]12CO[C@@H]1C[C@H](O)[C@@]1(C)C(=O)[C@H](O)C3=C(C)[C@@H](OC(=O)[C@H](O)[C@@H](NC(=O)OC(C)(C)C)c4ccccc4)C[C@@](O)([C@@H](OC(=O)c4ccccc4)[C@H]21)C3(C)C` [docetaxel], in data set [3], the “growth arrest and tumor regression” value was “minimal growth arrest and no tumor regression”; the “Time-to-tumor regrowth (TTR; time for tumor to double its volume)” value is listed as “minor delay on time to regrowth”.
